Measured values: patent US8518707B2, “Method of monitoring adsorbent bed breakthrough in a process for producing alkyl esters from vegetable or animal oil and from an aliphatic monoalcohol” (IFP Energies Novelles, priority 2008, dated 2013)

Columns and labels:
[1] = cited from earlier work
[2] = Solubility limit of glycerol in vegetable rape oil methyl ester (equilibrium with excess glycerol, GC per EN 14,214); type: physicochemical; conditions: solubility limit in vegetable rape oil methyl ester phase
Text: It has therefore been necessary to determine it. Experimental measurements were therefore carried out on the vegetable rape oil methyl ester/glycerol system. The solubility measurements consisted in bringing together ester and glycerol in excess so as to obtain two distinct phases and to be sure the ester phase is saturated with glycerol, in a thermostat-controlled oven, at the selected temperature, long enough for equilibrium to be reached. A sample is then taken from the ester phase and analysed by gas chromatography according to the method of determining glycerol in ester described in the EN 14,214 standard.

[3] = Soluble glycerol in the ester stream after methanol evaporation (Esterfip-H process); type: physicochemical; conditions: methyl ester stream after alcohol evaporation, ambient temperature
Text: In the Esterfip-H™ process developed by IFP and using a heterogeneous catalyst, separation between the glycerol and the ester produced occurs in several stages. In fact, methanol acting as a co-solubilizing agent for the methyl esters and the glycerol, the alcohol evaporation stage carried out at the reaction section outlet makes part of the glycerol present in the stream, in a proportion ranging between 0.1 and 5% by mass, insoluble. The soluble part represents, at ambient temperature, 500 to 700 ppm mass, the allowable maximum content set by the European standard being 200 ppm mass of free glycerol. Both the insoluble glycerol and part of the soluble glycerol therefore have to be separated. Separation is first performed through gravity decantation in a decanter drum. The ester stream flowing from the decanter is then sent to a coalescer. The glycerin phase stream is withdrawn at the bottom point of the coalescer. Methods allowing these two separation stages to be improved are described in the patent applications filed by the assignee under No. FR-07/04,711 and FR-07/04,715.

Q: With `OCC(O)CO` [glycerol] as the compound, how does the solubility in alcohols ([1]; alcohols) read?
A: infinitely soluble

Q: What about the solubility in benzene ([1]; benzene) of the same compound?
A: totally insoluble

Q: And the solubility in ethers ([1]; ethers)?
A: little soluble

Q: What about the solubility in water ([1]; water) of the same compound?
A: infinitely soluble

Q: What about the “Climit(glycerol)” value ([2]; T 20 °C) of the same compound?
A: 320 ppm

Q: And the “Climit(glycerol)” value ([2]; T 43 °C)?
A: 484 ppm

Q: What about the “Climit(glycerol)” value ([2]; T 61 °C) of the same compound?
A: 813 ppm

Q: What about the “Climit(glycerol)” value ([2]; T 80 °C) of the same compound?
A: 1233 ppm

Q: What about the “soluble part of glycerol in ester stream” value [3] of the same compound?
A: 500 to 700 ppm mass
